In one test the target is T1, GST-tagged FAK (Homo sapiens, UniProt Q05397).
T1 construct: purchased Invitrogen PV3832
The test is described as follows: Biochemical assay for FAK activity, Assay 1: phosphorylation of peptide substrate with radio-labeled ATP. Conditions: 5 μM ATP, 30 min pre-incubation; for IC50: read-out: Assay 1 FAK TRF PXC50 (converted). As to the method: GST-tagged (glutathione S-transferase-tagged) FAK was purchased from Invitrogen (PV3832) (www.invitrogen.com). […] To measure inhibitors of FAK, compounds were first prepared as a 10× stock in 10% DMSO. […] A 6-nM GST-FAK solution was prepared in 1.1× reaction buffer containing 44 mM HEPES, pH=7.2, 11 mM MgCl2, 2.2 mM MnCl2, 1.1 mM DTT and 0.011% Tween-20. Then, 20 μL of the 6 nM GST-FAK solution were pre-incubated with the compounds for 30 min at room temperature. […] The reaction was allowed to proceed for 90 min before being quenched with 40 μL of 1% H3PO4. A portion of the reaction mixture (60 μL) was transferred to a phospho-cellulose filter plate (Millipore; www.millipore.com, MAPHNOB50) and incubated for 20 minutes. The plate was filtrated, washed three times using 150 μL of 0.5% H3PO4 and dried at 50° C. for 30 min. After the addition of 60 μL Microscint-20 to the plate, radioactivity was measured using a TopCount (PerkinElmer; www.PerkinElmer.com).

Test [1] has as its target T2, Full length Human FAK (Flag-His-TEV-FAK1) (Homo sapiens, UniProt Q05397).
T2 construct: Full length Human FAK was expressed using baculovirus in Sf9 cells; made in house; host or cells: baculovirus in Sf9 cells
The test is described as follows: Biochemical assay for FAK activity, Assay 2: LANCE Ultra ULight peptide phosphorylation, 665 nm/615 nm ratio. Conditions: Flag-His-TEV-FAK1, 10 μM ATP, 30 min pre-incubation; for IC50: read-out: Assay 2 FAK H 31284A TRF PXC50 (converted). In general terms: TR-FRET usually uses a lanthanide donor and a delayed reading to cut background.

T1 sequence (Q05397 whole entry): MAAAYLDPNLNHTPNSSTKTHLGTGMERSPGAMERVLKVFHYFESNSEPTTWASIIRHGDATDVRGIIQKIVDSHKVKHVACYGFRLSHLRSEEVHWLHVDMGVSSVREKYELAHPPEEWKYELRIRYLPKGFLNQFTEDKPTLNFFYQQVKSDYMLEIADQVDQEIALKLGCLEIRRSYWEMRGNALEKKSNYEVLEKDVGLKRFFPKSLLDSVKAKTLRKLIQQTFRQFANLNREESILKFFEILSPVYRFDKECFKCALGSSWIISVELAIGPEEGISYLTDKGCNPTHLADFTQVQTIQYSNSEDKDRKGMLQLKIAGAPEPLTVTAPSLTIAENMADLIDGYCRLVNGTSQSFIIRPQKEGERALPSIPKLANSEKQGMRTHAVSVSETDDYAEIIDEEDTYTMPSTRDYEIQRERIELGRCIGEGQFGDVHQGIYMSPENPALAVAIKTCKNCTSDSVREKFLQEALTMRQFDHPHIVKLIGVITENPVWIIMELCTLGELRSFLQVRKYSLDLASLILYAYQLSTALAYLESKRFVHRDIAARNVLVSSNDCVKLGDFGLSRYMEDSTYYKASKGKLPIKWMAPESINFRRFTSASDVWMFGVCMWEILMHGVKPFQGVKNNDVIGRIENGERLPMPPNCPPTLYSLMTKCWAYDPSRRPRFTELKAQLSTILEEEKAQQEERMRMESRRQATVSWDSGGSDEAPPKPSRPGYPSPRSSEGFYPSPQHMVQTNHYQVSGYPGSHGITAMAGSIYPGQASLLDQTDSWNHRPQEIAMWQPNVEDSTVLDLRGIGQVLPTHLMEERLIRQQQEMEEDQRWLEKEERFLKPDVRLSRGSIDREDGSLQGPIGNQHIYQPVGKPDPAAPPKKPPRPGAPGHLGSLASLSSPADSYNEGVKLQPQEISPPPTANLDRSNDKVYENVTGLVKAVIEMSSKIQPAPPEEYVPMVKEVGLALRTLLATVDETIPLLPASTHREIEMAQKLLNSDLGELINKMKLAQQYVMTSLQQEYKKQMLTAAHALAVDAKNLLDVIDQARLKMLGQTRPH
T2 sequence (Q05397 whole entry): as above

Turning to `CNC(=O)c1cc(F)ccc1Nc1cc(Nc2cc(C)nn2C)ncc1Cl` [Example 7, 2-({5-Chloro-2-[(1,3-dimethyl-1H-pyrazol-5-yl)amino]-4-pyridinyl}amino)-5-fluoro-N-methylbenzamide], the IC50 on GST-tagged FAK is 0.794 nM; in test [1] it was 10 nM.

As for `CONC(=O)c1ccccc1Nc1cc(Nc2cc(C)nn2C(C)C)ncc1Cl` [Example 41, 2-[(5-Chloro-2-{[3-methyl-1-(1-methylethyl)-1H-pyrazol-5-yl]amino}-4-pyridinyl)amino]-N-(methyloxy)benzamide], the IC50 on GST-tagged FAK was 0.398 nM; in test [1], 2 nM.

As for `CCn1nc(C(=O)N(C)CCN(C)C)cc1Nc1cc(Nc2ccccc2C(=O)NC)c(Cl)cn1` [Example 25, 5-{[5-Chloro-4-({2-[(methylamino)carbonyl]phenyl}amino)-2-pyridinyl]amino}-N-[2-(dimethylamino)ethyl]-1-ethyl-N-methyl-1H-pyrazole-3-carboxamide], the values for the IC50 (at GST-tagged FAK; in test [1]) were 2.51 nM and 31.6 nM, respectively.

For `CCn1nc(C(=O)NCCN(C)C)cc1Nc1cc(Nc2ccccc2C(=O)NC)c(Cl)cn1` [Example 24, 5-{[5-Chloro-4-({2-[(methylamino)carbonyl]phenyl}amino)-2-pyridinyl]amino}-N-[2-(dimethylamino)ethyl]-1-ethyl-1H-pyrazole-3-carboxamide], the IC50 on GST-tagged FAK was 6.31 nM; in test [1], 63.1 nM.

For the molecule “2-({5-Chloro-2-[(1-ethyl-1H-pyrazol-5-yl)amino]-4-pyridinyl}amino)-4,5-difluoro-N-methylbenzamide [Example 10]”, the “Assay 1 FAK TRF PXC50” value on GST-tagged FAK is recorded as 9.1. In addition, the “Assay 2 FAK H 31284A TRF PXC50” value in test [1] worked out at 8.

In the case of `CNC(=O)c1ccccc1Nc1cc(Nc2ccnn2C2CCN(C)CC2)ncc1Cl` [Example 22, 2-[(5-Chloro-2-{[1-(1-methyl-4-piperidinyl)-1H-pyrazol-5-yl]amino}-4-pyridinyl)amino]-N-methylbenzamide], the results for the IC50 (at GST-tagged FAK; in test [1]) were 31.6 nM and 251 nM, respectively.

Consider `CNC(=O)c1ccccc1Nc1cc(Nc2cc(C(C)(C)C)nn2C)ncc1Cl` [Example 14, 2-[(5-Chloro-2-{[3-(1,1-dimethylethyl)-1-methyl-1H-pyrazol-5-yl)amino]-4-pyridinyl}amino]-N-methylbenzamide], for which the IC50 at GST-tagged FAK is 2.51 nM; in test [1] it was 20 nM.

Source of the values: patent publication US20140155410A1 (GlaxoSmithKline LLC, priority 2008, published 2014).
